# In patent US12371428B2 (Exelixis, Inc., priority 2019, dated 2025):
# pIC50: −log10 of the molar value. Structures can show the parent of a compound that is named as a salt.
# Legend:
# [1] = target: Human MER (residues 528-999) (Homo sapiens (Human), UniProt Q12866); experiment: Human Mer kinase assay, HTRF KinEase (Example C-2); assay type: biochemical; conditions: protocol of Example C-2 (other compounds)
# Summary of the method: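 HTRF KinEase TK assay with MER 528-999 (1 ng/well) in enzymatic buffer plus 5 mM MgCl2 and 1 mM DTT, biotinylated peptide substrate and ATP at Km (40 μM), 3% DMSO final, 60 min at room temperature. Stopped with EDTA detection mix (SA-XL665, TK antibody-Eu3+), read at 665/620 nm after 60 min; IC50 from 10-point 4-parameter fit, normalized to DMSO and 1 μM reference.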
# [2] = target: Mer (phospho-Mer, MERTK-transfected 293A cells) (Homo sapiens (Human), UniProt Q12866); experiment: Mer autophosphorylation ELISA in transient transfected 293A cells (Example H); assay type: cell-based; conditions: cellular activity; Mer autophosphorylation ELISA in transient transfected 293A cells
# Summary of the method: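 MERTK-transfected 293A; 8-pt dose, 1 h, serum-free, 0.3% DMSO. Cold lysis with orthovanadate and protease/phosphatase inhibitors. Phospho-Mer by DuoSet IC ELISA vs phospho-Mer standard. IC50: 4-PL fit; DMSO = 100%, reference inhibitor = 0%.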
# [3] = target: Human KDR (residues 790-1356) (Homo sapiens (Human), UniProt P35968); experiment: Human KDR kinase assay, HTRF KinEase (Example B-2); assay type: biochemical; conditions: protocol of Example B-2 (other compounds)
# Summary of the method: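 Ten compound concentrations (3% DMSO final) were pre-plated, then KDR (790-1356) with biotinylated peptide in Mg/Mn/DTT buffer was added; ATP at Km (4.0 μM) started a 40 min room-temperature reaction. Detection used Eu-TK antibody and SA-XL665 in EDTA buffer; activity normalized to DMSO and reference inhibitor, IC50 by logistic fit.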
# [4] = target: Human MET (residues 956-1390) (Homo sapiens (Human), UniProt P08581); experiment: Human Met kinase assay, HTRF KinEase (Example D-2); assay type: biochemical; conditions: protocol of Example D-2 (other compounds); read-out: c-Met IC50
# Summary of the method: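 HTRF KinEase assay on MET residues 956-1390 (0.1 ng/well) in buffer with 5 mM MgCl2, 1 mM DTT and 1 mM MnCl2, with biotinylated peptide substrate, ATP at Km, 10 compound concentrations and 3% DMSO final, run 40 min at room temperature. The […] signal was normalized to DMSO and to 1 μM reference compound, and IC50 came from a 4-parameter logistic fit.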
# Sequence of Mer (phospho-Mer, MERTK-transfected 293A cells) (Q12866 21-999): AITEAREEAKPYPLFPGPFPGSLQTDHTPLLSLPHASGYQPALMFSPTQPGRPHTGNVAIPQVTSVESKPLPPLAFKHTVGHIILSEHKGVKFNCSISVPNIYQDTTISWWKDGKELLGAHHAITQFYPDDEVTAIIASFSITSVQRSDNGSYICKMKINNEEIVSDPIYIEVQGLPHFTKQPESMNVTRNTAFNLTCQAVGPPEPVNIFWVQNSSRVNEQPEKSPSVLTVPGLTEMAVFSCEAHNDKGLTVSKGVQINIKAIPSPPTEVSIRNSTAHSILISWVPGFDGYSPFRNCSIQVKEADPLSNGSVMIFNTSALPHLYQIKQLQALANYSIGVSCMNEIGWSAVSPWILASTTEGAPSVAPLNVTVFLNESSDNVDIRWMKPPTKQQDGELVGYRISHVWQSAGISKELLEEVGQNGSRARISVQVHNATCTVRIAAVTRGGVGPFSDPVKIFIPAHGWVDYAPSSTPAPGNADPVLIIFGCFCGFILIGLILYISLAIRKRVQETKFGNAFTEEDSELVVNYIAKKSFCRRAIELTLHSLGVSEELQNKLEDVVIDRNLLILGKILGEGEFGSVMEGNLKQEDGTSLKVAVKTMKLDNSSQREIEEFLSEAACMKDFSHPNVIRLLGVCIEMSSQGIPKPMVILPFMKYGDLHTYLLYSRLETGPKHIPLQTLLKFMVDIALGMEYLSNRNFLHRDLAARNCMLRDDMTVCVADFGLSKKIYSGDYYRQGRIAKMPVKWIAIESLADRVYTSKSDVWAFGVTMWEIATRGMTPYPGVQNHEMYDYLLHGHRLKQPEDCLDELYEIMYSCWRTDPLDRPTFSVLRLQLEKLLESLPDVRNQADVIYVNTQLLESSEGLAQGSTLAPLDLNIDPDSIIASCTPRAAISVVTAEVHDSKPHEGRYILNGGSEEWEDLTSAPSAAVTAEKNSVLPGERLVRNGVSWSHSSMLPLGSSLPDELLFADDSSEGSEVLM
# Sequence of Human MET (residues 956-1390) (P08581 956-1390): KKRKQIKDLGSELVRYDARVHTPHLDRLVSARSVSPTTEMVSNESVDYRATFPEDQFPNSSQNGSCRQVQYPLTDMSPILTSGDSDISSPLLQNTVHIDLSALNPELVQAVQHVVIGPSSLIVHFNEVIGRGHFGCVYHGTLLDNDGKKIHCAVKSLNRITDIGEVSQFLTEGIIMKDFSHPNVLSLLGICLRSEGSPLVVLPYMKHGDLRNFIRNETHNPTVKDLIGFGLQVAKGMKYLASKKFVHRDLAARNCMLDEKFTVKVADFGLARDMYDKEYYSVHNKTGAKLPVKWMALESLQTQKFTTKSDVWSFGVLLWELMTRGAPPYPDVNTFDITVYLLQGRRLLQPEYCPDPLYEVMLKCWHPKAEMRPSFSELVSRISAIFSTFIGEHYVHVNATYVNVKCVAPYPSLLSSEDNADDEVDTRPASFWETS
# Sequence of Human KDR (residues 790-1356) (P35968 790-1356): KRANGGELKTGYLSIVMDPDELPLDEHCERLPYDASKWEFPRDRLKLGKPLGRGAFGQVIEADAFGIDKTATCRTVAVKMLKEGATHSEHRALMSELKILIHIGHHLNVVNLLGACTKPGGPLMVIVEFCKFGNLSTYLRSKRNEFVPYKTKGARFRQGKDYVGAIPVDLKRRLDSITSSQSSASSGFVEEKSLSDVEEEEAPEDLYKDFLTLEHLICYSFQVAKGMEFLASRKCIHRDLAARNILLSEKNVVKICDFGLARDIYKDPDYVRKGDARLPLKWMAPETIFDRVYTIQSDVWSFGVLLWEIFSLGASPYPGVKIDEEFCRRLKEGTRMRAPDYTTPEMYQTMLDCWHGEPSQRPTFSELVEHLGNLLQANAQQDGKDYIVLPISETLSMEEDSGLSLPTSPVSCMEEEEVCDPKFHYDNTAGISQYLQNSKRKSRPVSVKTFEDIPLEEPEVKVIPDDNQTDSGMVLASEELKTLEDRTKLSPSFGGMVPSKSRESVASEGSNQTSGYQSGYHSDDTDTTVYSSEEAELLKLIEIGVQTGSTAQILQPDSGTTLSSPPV
# Sequence of Human MER (residues 528-999) (Q12866 528-999): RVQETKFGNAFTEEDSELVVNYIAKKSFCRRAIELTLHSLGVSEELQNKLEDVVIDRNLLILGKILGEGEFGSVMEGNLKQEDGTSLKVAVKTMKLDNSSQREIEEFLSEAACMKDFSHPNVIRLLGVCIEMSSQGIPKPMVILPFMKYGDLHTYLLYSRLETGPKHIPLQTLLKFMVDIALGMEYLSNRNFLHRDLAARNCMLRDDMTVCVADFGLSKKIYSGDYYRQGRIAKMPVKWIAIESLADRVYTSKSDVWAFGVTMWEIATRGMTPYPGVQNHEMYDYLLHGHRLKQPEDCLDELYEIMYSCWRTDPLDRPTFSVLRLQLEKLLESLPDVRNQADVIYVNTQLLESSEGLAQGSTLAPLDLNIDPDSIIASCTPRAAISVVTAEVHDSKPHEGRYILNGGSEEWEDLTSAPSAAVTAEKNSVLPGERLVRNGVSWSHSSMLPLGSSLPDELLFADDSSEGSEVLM
pIC50 [1],pIC50 [2],pIC50 [3],pIC50 [4],Structure (SMILES)
> 7.00,> 7.00,6.52 to 7.00,> 7.00,"COc1cc2nccc(Oc3ccc(NC(=O)c4cn(C(C)C)c(C)c(-c5ccc(F)cc5C)c4=O)cc3F)c2nc1OC [Compound 32, N-[4-[(6,7-Dimethoxy-1,5-naphthyridin-4-yl)oxy]-3-fluorophenyl]-5-(4-fluoro-2-methylphenyl)-6-methyl-4-oxo-1-propan-2-ylpyridine-3-carboxamide hydrochloride]"
> 7.00,> 7.00,> 7.00,> 7.00,"COc1cnc2c(Oc3ccc(NC(=O)c4c(C)nc(C)n(-c5ccc(F)cc5)c4=O)cc3F)ccnc2c1 [Compound 257, N-[3-Fluoro-4-[(7-methoxy-1,5-naphthyridin-4-yl)oxy]phenyl]-1-(4-fluorophenyl)-2,4-dimethyl-6-oxopyrimidine-5-carboxamide]"
> 7.00,> 7.00,6.52 to 7.00,> 7.00,"CCc1nc(C)c(-c2ccc(F)cc2)c(O)c1C(=O)Nc1ccc(Oc2ccnc3ccc(OC)nc23)c(F)c1 [Compound 182, 2-Ethyl-N-[3-fluoro-4-[(6-methoxy-1,5-naphthyridin-4-yl)oxy]phenyl]-5-(4-fluorophenyl)-4-hydroxy-6-methylpyridine-3-carboxamide]"
> 7.00,> 7.00,> 7.00,> 7.00,"CCc1nc(C)c(-c2ccc(F)cc2)c(O)c1C(=O)Nc1ccc(Oc2ccnc3cc(OC)cnc23)cc1 [Compound 188, 2-Ethyl-5-(4-fluorophenyl)-4-hydroxy-N-[4-[(7-methoxy-1,5-naphthyridin-4-yl)oxy]phenyl]-6-methylpyridine-3-carboxamide]"
> 7.00,> 7.00,> 7.00,> 7.00,"CCc1nc(C)c(-c2ccc(F)cc2)c(O)c1C(=O)Nc1ccc(Oc2ccnc3cc(OC)cnc23)c(F)c1 [Compound 180, 2-Ethyl-N-[3-fluoro-4-[(7-methoxy-1,5-naphthyridin-4-yl)oxy]phenyl]-5-(4-fluorophenyl)-4-hydroxy-6-methylpyridine-3-carboxamide]"
> 7.00,> 7.00,< 6.52,> 7.00,"COc1ccc2nccc(Oc3ccc(NC(=O)c4cn(C)c(CO)c(-c5ccc(F)cc5)c4=O)cc3F)c2n1 [Compound 224, N-[3-Fluoro-4-[(6-methoxy-1,5-naphthyridin-4-yl)oxy]phenyl]-5-(4-fluorophenyl)-6-(hydroxymethyl)-1-methyl-4-oxopyridine-3-carboxamide]"
> 7.00,> 7.00,6.52 to 7.00,> 7.00,"COCCOc1nc2c(Oc3ccc(NC(=O)c4n[nH]c(C)c(-c5ccc(F)cc5C)c4=O)cc3F)ccnc2cc1OC [Compound 252, N-[3-Fluoro-4-[[7-methoxy-6-(2-methoxyethoxy)-1,5-naphthyridin-4-yl]oxy]phenyl]-5-(4-fluoro-2-methylphenyl)-6-methyl-4-oxo-1H-pyridazine-3-carboxamide]"
> 7.00,> 7.00,> 7.00,> 7.00,"COc1cc2nccc(Oc3ccc(NC(=O)c4cn(C)cc(-c5ccccc5)c4=O)cc3F)c2nc1OC [Compound 33, N-[4-[(6,7-Dimethoxy-1,5-naphthyridin-4-yl)oxy]-3-fluorophenyl]-1-methyl-4-oxo-5-phenylpyridine-3-carboxamide hydrochloride]"
> 7.00,> 7.00,6.52 to 7.00,> 7.00,"COCCOc1nc2c(Oc3ccc(NC(=O)c4cn(C)c(CO)c(-c5ccc(F)cc5)c4=O)cc3F)ccnc2cc1OC [Compound 228, N-[3-Fluoro-4-[[7-methoxy-6-(2-methoxyethoxy)-1,5-naphthyridin-4-yl]oxy]phenyl]-5-(4-fluorophenyl)-6-(hydroxymethyl)-1-methyl-4-oxopyridine-3-carboxamide]"
> 7.00,> 7.00,> 7.00,> 7.00,"COCc1nc(C)c(-c2ccc(F)cc2)c(O)c1C(=O)Nc1ccc(Oc2ccnc3cc(OC)cnc23)c(F)c1 [Compound 186, N-[3-Fluoro-4-[(7-methoxy-1,5-naphthyridin-4-yl)oxy]phenyl]-5-(4-fluorophenyl)-4-hydroxy-2-(methoxymethyl)-6-methylpyridine-3-carboxamide]"
> 7.00,> 7.00,6.52 to 7.00,> 7.00,"COCc1nc(C)c(-c2ccc(F)cc2C)c(O)c1C(=O)Nc1ccc(Oc2ccnc3cc(OC)cnc23)c(F)c1 [Compound 193, N-[3-Fluoro-4-[(7-methoxy-1,5-naphthyridin-4-yl)oxy]phenyl]-5-(4-fluoro-2-methylphenyl)-4-hydroxy-2-(methoxymethyl)-6-methylpyridine-3-carboxamide]"
> 7.00,> 7.00,> 7.00,> 7.00,"COCc1nc(C)c(-c2ccc(F)cc2C)c(O)c1C(=O)Nc1ccc(Oc2ccnc3cc(OC)c(OC)nc23)c(F)c1 [Compound 191, N-[4-[(6,7-Dimethoxy-1,5-naphthyridin-4-yl)oxy]-3-fluorophenyl]-5-(4-fluoro-2-methylphenyl)-4-hydroxy-2-(methoxymethyl)-6-methylpyridine-3-carboxamide]"
> 7.00,> 7.00,> 7.00,> 7.00,"COc1cc2nccc(Oc3ccc(NC(=O)c4ccc(C)n(-c5ccc(F)cc5)c4=O)cc3)c2nc1OC [Compound 229, N-[4-[(6,7-Dimethoxy-1,5-naphthyridin-4-yl)oxy]phenyl]-1-(4-fluorophenyl)-6-methyl-2-oxopyridine-3-carboxamide]"
> 7.00,> 7.00,< 6.52,> 7.00,"COc1cnc2c(Oc3ccc(NC(=O)c4n[nH]c(C)c(-c5ccc(F)cc5C)c4=O)cc3F)ccnc2c1 [Compound 249A, N-[3-Fluoro-4-[(7-methoxy-1,5-naphthyridin-4-yl)oxy]phenyl]-5-(4-fluoro-2-methylphenyl)-6-methyl-4-oxo-1H-pyridazine-3-carboxamide]"
> 7.00,> 7.00,< 6.52,< 6.52,"COc1ccc2nccc(Oc3ccc(NC(=O)c4c(C)ncn(-c5ccc(F)cc5)c4=O)cc3F)c2n1 [Compound 234, N-[3-Fluoro-4-[(6-methoxy-1,5-naphthyridin-4-yl)oxy]phenyl]-1-(4-fluorophenyl)-4-methyl-6-oxopyrimidine-5-carboxamide]"
> 7.00,> 7.00,6.52 to 7.00,> 7.00,"COc1cnc2c(Oc3ccc(NC(=O)c4cnc(CO)c(-c5ccc(F)cc5)c4O)cc3F)ccnc2c1 [Compound 217, N-[3-Fluoro-4-[(7-methoxy-1,5-naphthyridin-4-yl)oxy]phenyl]-5-(4-fluorophenyl)-4-hydroxy-6-(hydroxymethyl)pyridine-3-carboxamide]"
> 7.00,> 7.00,< 6.52,> 7.00,"COc1cnc2c(Oc3ccc(NC(=O)c4nnc(C)c(-c5ccc(F)cc5C)c4O)cc3F)ccnc2c1 (single isomer, unassigned) [Compound 249B, N-[3-Fluoro-4-[(7-methoxy-1,5-naphthyridin-4-yl)oxy]phenyl]-5-(4-fluoro-2-methylphenyl)-4-hydroxy-6-methylpyridazine-3-carboxamide]"
> 7.00,> 7.00,> 7.00,> 7.00,"COCc1nc(C)c(-c2ccc(F)cc2)c(O)c1C(=O)Nc1ccc(Oc2ccnc3cc(OC)cnc23)cc1 [Compound 185, 5-(4-Fluorophenyl)-4-hydroxy-2-(methoxymethyl)-N-[4-[(7-methoxy-1,5-naphthyridin-4-yl)oxy]phenyl]-6-methylpyridine-3-carboxamide]"
> 7.00,> 7.00,< 6.52,< 6.52,"COc1ccc2nccc(Oc3ccc(NC(=O)c4c(C)n(C)cc(-c5ccc(F)cc5)c4=O)cc3F)c2n1 [Compound 243, N-[3-Fluoro-4-[(6-methoxy-1,5-naphthyridin-4-yl)oxy]phenyl]-5-(4-fluorophenyl)-1,2-dimethyl-4-oxopyridine-3-carboxamide]"
> 7.00,> 7.00,> 7.00,> 7.00,"COc1cc2nccc(Oc3ccc(NC(=O)c4n[nH]c(C)c(-c5ccc(F)cc5C)c4=O)cc3)c2nc1OC [Compound 247, N-[4-[(6,7-Dimethoxy-1,5-naphthyridin-4-yl)oxy]phenyl]-5-(4-fluoro-2-methylphenyl)-6-methyl-4-oxo-1H-pyridazine-3-carboxamide]"
